Test results reported in patent US20090209536A1, “AMINOQUINAZOLINE CANNABINOID RECEPTOR MODULATORS FOR TREATMENT OF DISEASE” (KALYPSYS, INC., priority 2007, published 2009).
Where two headings read alike, the source gives them in different places.

How the values were obtained:
[1] = biological target: T1, human cannabinoid receptor type 2 (Homo sapiens, UniProt P34972); assay: Human CB2 Radioligand Binding Assay; conditions: membranes from stably transfected CHO CB2 cells
T1 construct: expressed in transfected cells; membrane preparation
Outline: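 Filtration competition binding on membranes from CHO cells stably expressing human CB2, with [3H]CP-55,940 at its lot-specific Kd, in 50 mM Tris-HCl pH 7.4, EGTA, MgCl2, 5 mg/ml BSA, 1% DMSO; 90 min at 30° C. Compounds at 10 uM single point or dose-response; bound radioactivity by scintillation, 100 nM CP-55,940 as 100% efficacy.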

[2] = biological target: T2, human cannabinoid receptor type 1 (Homo sapiens, UniProt P21554); assay: Human CB1 Radioligand Binding Assay (basis of selectivity, CB2 vs. CB1); conditions: CB1: HEK 293 EBNA cells expressing human CB1; CB2: CHO CB2 membranes
T2 construct: purchased Perkin Elmer RBHCB1M; host or cells: HEK 293 EBNA cells
Protocol: 2. Human CB1 Radioligand Binding Assay
The incubation buffer was composed of 50 mM Tris-HCl pH 7.4, 2.5 mM EDTA, 5 mM MgCl2, 5.0 mg/ml fatty acid free BSA and the wash buffer was composed of 50 mM Tris-HCl pH 7.4, 2.5 mM EDTA, 5 mM MgCl2, 0.5 mg/ml fatty acid free BSA.

[3] = CB2 Ligand Binding Asssay EC50, competition with [3H] CP-55,940
[4] = competition with [3H] CP-55,940, read-out: CB2 Ligand Binding Asssay EC50

T2 sequence (P21554 whole entry): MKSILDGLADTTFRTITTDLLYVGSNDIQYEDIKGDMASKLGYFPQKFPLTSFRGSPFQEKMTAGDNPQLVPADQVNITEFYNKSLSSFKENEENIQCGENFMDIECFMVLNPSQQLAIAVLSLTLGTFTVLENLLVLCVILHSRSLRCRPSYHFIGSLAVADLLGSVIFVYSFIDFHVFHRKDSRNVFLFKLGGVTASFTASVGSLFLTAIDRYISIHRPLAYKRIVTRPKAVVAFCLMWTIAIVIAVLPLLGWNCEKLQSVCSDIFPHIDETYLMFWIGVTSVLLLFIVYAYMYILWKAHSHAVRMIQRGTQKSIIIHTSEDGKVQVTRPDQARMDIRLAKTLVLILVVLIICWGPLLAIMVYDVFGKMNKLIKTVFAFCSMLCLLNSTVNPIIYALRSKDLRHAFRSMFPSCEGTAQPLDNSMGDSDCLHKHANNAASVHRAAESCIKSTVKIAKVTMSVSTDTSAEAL
T1 sequence (P34972 whole entry): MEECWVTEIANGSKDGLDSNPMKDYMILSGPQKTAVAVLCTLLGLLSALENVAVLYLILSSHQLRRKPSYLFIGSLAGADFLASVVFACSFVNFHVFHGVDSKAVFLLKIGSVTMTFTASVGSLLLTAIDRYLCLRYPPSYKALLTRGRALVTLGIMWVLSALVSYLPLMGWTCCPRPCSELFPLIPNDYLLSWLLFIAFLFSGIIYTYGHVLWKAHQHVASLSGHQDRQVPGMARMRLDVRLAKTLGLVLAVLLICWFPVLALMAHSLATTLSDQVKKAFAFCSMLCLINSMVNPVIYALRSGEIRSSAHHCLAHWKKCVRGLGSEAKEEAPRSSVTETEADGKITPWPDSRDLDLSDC

Row | Selectivity, CB2 vs. CB1 [2] | EC50 [1, 4] [µM] | SMILES | EC50 [1, 3] [µM]
1 | − (− indicates ≦ 10−fold) | > 1 | CCN(CC)C(=O)c1ccc2c(N3CCN(C(C)=O)CC3)nc(-c3ccccc3Cl)nc2c1 [Example 323, 4-(4-Acetylpiperazin-1-yl)-2-(2-chlorophenyl)-N,N-diethylquinazoline-7-carboxamide] | –
2 | − (− indicates ≦ 10−fold) | > 1 | CC(=O)N1CCN(c2nc(-c3ccccc3Cl)nc3cc(C(=O)N4CCCCC4)ccc23)CC1 [Example 324, 1-(4-(2-(2-Chlorophenyl)-7-(piperidine-1-carbonyl)quinazolin-4-yl)piperazin-1-yl)ethanone] | –
3 | − (− indicates ≦ 10−fold) | > 1 | COc1ccc(CNC(=O)c2ccc3c(N4CCN(C(C)=O)CC4)nc(-c4ccccc4Cl)nc3c2)cc1 [Example 325, 4-(4-Acetylpiperazin-1-yl)-2-(2-chlorophenyl)-N-(4-methoxybenzyl)quinazoline-7-carboxamide] | –
4 | − (− indicates ≦ 10−fold) | > 1 | COC(=O)c1ccc2nc(-c3ccccc3Cl)nc(Nc3cccc(OC(F)(F)F)c3)c2c1 [Example 326, Methyl 2-(2-chlorophenyl)-4-(3-(trifluoromethoxy)phenylamino)quinazoline-6-carboxylate] | –
5 | − (− indicates ≦ 10−fold) | > 1 | COC(=O)c1ccc2nc(-c3ccccc3Cl)nc(Nc3cccc(OC(C)C)c3)c2c1 [Example 327, Methyl 2-(2-chlorophenyl)-4-(3-isopropoxyphenylamino)quinazoline-6-carboxylate] | –
6 | − (− indicates ≦ 10−fold) | > 1 | COC(=O)c1ccc2nc(-c3ccccc3Cl)nc(Nc3cc(OC)cc(OC)c3)c2c1 [Example 328, Methyl 2-(2-chlorophenyl)-4-(3,5-dimethoxyphenylamino)quinazoline-6-carboxylate] | –
7 | − (− indicates ≦ 10−fold) | > 1 | COC(=O)c1ccc2nc(-c3ccccc3Cl)nc(N3CCc4cc(OC)ccc43)c2c1 [Example 330, Methyl 2-(2-chlorophenyl)-4-(5-methoxyindolin-1-yl)quinazoline-6-carboxylate] | –
8 | − (− indicates ≦ 10−fold) | > 1 | Cc1ccccc1Nc1nc(-c2ccccc2Cl)nc2ccccc12 [Example 331, 2-(2-Chlorophenyl)-N-o-tolylquinazolin-4-amine] | –
9 | − (− indicates ≦ 10−fold) | > 1 | CCOc1ccc(Nc2nc(-c3ccccc3Cl)nc3ccccc23)cc1 [Example 332, 2-(2-Chlorophenyl)-N-(4-ethoxyphenyl)quinazolin-4-amine] | –
10 | − (− indicates ≦ 10−fold) | < 1 | CN1CCCN(c2nc(-c3ccccc3Cl)nc3ccccc23)CC1 [Example 333, 2-(2-Chlorophenyl)-4-(4-methyl-1,4-diazepan-1-yl)quinazoline] | –
11 | − (− indicates ≦ 10−fold) | < 1 | CC(=O)N1CCCN(c2nc(-c3ccccc3Cl)nc3ccccc23)CC1 [Example 334, 1-(4-(2-(2-Chlorophenyl)quinazolin-4-yl)-1,4-diazepan-1-yl)ethanone] | –

The remaining lines, values behind:

Row | SMILES | Selectivity, CB2 vs. CB1 [2] | EC50 [1, 4] [µM] | EC50 [1, 3] [µM]
12 | O=S(=O)(NCc1nc(N2CCOCC2)c2ccccc2n1)c1ccc2ccccc2c1 [Example 301, N-((4-Morpholinoquinazolin-2-yl)methyl)naphthalene-2-sulfonamide] | − (− indicates ≦ 10−fold) | – | > 1
13 | O=S(=O)(NCc1nc(Nc2ccccc2)c2ccccc2n1)c1cccc2ccccc12 [Example 302, N-((4-(Phenylamino)quinazolin-2-yl)methyl)naphthalene-1-sulfonamide] | − (− indicates ≦ 10−fold) | > 1 | –
14 | c1ccc(NCc2nc(Nc3ccccc3)c3ccccc3n2)cc1 [Example 303, N-Phenyl-2-((phenylamino)methyl)quinazolin-4-amine] | − (− indicates ≦ 10−fold) | > 1 | –
15 | CC(C)Nc1nc(CNS(=O)(=O)c2cccc3ccccc23)nc2ccccc12 [Example 304, N-((4-(Isopropylamino)quinazolin-2-yl)methyl)naphthalene-1-sulfonamide] | − (− indicates ≦ 10−fold) | < 1 | –
16 | O=S(=O)(NCc1nc(NC2CCCC2)c2ccccc2n1)c1cccc2ccccc12 [Example 305, N-((4-(Cyclopentylamino)quinazolin-2-yl)methyl)naphthalene-1-sulfonamide] | − (− indicates ≦ 10−fold) | < 1 | –
17 | COc1cc2nc(CNS(=O)(=O)c3cccc4ccccc34)nc(N3CCCC3)c2cc1OC [Example 307, N-((6,7-Dimethoxy-4-(pyrrolidin-1-yl)quinazolin-2-yl)methyl)naphthalene-1-sulfonamide] | − (− indicates ≦ 10−fold) | < 1 | –
18 | O=S(=O)(NCc1nc(N2Cc3ccccc3C2)c2ccccc2n1)c1cccc2ccccc12 [Example 308, N-((4-(isoindolin-2-yl)quinazolin-2-yl)methyl)naphthalene-1-sulfonamide] | − (− indicates ≦ 10−fold) | < 1 | –
19 | O=S(=O)(NCc1nc(N2CCCC2)c2ccc(Cl)cc2n1)c1cccc2ccccc12 [Example 309, N-((7-Chloro-4-(pyrrolidin-1-yl)quinazolin-2-yl)methyl)naphthalene-1-sulfonamide] | + (+ indicates > 10−fold) | < 1 | –
20 | COC(=O)c1ccc2nc(-c3ccccc3Cl)nc(N3CCN(C)CC3)c2c1 [Example 310, Methyl 2-(2-chlorophenyl)-4-(4-methylpiperazin-1-yl)quinazoline-6-carboxylate] | − (− indicates ≦ 10−fold) | < 1 | –
21 | CCN(CC)C(=O)c1ccc2nc(-c3ccccc3Cl)nc(N3CCN(C)CC3)c2c1 [Example 311, 2-(2-Chlorophenyl)-N,N-diethyl-4-(4-methylpiperazin-1-yl)quinazoline-6-carboxamide] | + (+ indicates > 10−fold) | < 1 | –
22 | CC1CCN(c2nc(-c3ccccc3Cl)nc3ccc(C(=O)NC4CCCCC4)cc23)CC1 [Example 312, 2-(2-Chlorophenyl)-N-cyclohexyl-4-(4-methylpiperidin-1-yl)quinazoline-6-carboxamide] | − (− indicates ≦ 10−fold) | < 1 | –
23 | COc1ccc(CNC(=O)c2ccc3nc(-c4ccccc4Cl)nc(N4CCC(C)CC4)c3c2)cc1 [Example 313, 2-(2-Chlorophenyl)-N-(4-methoxybenzyl)-4-(4-methylpiperidin-1-yl)quinazoline-6-carboxamide] | − (− indicates ≦ 10−fold) | < 1 | –
24 | CCOC(=O)N1CCN(c2nc(-c3ccccc3Cl)nc3ccc(C(=O)N(CC)CC)cc23)CC1 [Example 314, Ethyl 4-(2-(2-chlorophenyl)-6-(diethylcarbamoyl)quinazolin-4-yl)piperazine-1-carboxylate] | + (+ indicates > 10−fold) | > 1 | –
25 | CCN(CC)C(=O)c1ccc2nc(-c3ccccc3Cl)nc(N3CCOCC3)c2c1 [Example 315, 2-(2-Chlorophenyl)-N,N-diethyl-4-morpholinoquinazoline-6-carboxamide] | − (− indicates ≦ 10−fold) | – | > 1
26 | CCN(CC)C(=O)c1ccc2nc(-c3ccccc3Cl)nc(N3CCN(C(C)=O)CC3)c2c1 [Example 316, 4-(4-Acetylpiperazin-1-yl)-2-(2-chlorophenyl)-N,N-diethylquinazoline-6-carboxamide] | + (+ indicates > 10−fold) | < 1 | –
27 | CCOC(=O)N1CCN(c2nc(-c3ccccc3Cl)nc3cc(C(=O)OC)ccc23)CC1 [Example 317, Methyl 2-(2-chlorophenyl)-4-(4-(ethoxycarbonyl)piperazin-1-yl)quinazoline-7-carboxylate] | − (− indicates ≦ 10−fold) | > 1 | –
28 | CCOC(=O)N1CCN(c2nc(-c3ccccc3Cl)nc3cc(C(=O)O)ccc23)CC1 [Example 318, 2-(2-Chlorophenyl)-4-(4-(ethoxycarbonyl)piperazin-1-yl)quinazoline-7-carboxylic acid] | − (− indicates ≦ 10−fold) | > 1 | –
29 | CCOC(=O)N1CCN(c2nc(-c3ccccc3Cl)nc3cc(C(=O)NC(C)C)ccc23)CC1 [Example 320, Ethyl 4-(2-(2-chlorophenyl)-7-(isopropylcarbamoyl)quinazolin-4-yl)piperazine-1-carboxylate] | − (− indicates ≦ 10−fold) | > 1 | –
30 | CCOC(=O)N1CCN(c2nc(-c3ccccc3Cl)nc3cc(C(=O)NC)ccc23)CC1 [Example 321, Ethyl 4-(2-(2-chlorophenyl)-7-(methylcarbamoyl)quinazolin-4-yl)piperazine-1-carboxylate] | − (− indicates ≦ 10−fold) | > 1 | –
31 | COC(=O)c1ccc2c(N3CCN(C(C)=O)CC3)nc(-c3ccccc3Cl)nc2c1 [Example 322, Methyl 4-(4-acetylpiperazin-1-yl)-2-(2-chlorophenyl)quinazoline-7-carboxylate] | − (− indicates ≦ 10−fold) | – | > 1
